From patent US20030059511A1, “Sweetener compositions and uses thereof” (AJINOMOTO CO., INC., priority 1999, published 2003)

Columns and labels:
Type in all cases: in vivo, human
[1] = Taste characteristics in an aqueous solution (9 items, similarity index vs aqueous 10% sucrose solution); conditions: PSE 10%, smaller = closer to sucrose, 8 panelists
Experimental: The following experiments were performed using the water obtained by ion exchanging and further distilling the water.
An aqueous solution of each of derivatives 1 to 9 having a sweetness level equivalent to that of PSE 10% was prepared, and compared with aqueous 10% sucrose solution with respect to the following 9 items, i.e., “onset of the taste”, “round taste”, “clear taste”, “lingering taste”, “peculiar taste”, “heavy taste”, “bitter taste”, “astringent taste” and “irritation”. The results were determined as 5 levels (−2 point: very weak, −1 point: a little weak, 0 point: same, +1 point: a little strong, +2 point: very strong) by 8 panelists, and the average points were calculated. The sample solutions of the derivatives equivalent to PSE 10%, were prepared by using the magnification of sweetness intensity measured in Example 1, and the amounts of each derivatives to be used were as follows.
Next, the total of the absolute value of the deviation from sucrose in each of the evaluation items consisting of the onset of the taste, the round taste, the clear taste, the lingering taste, the peculiar taste, the heavy taste, the bitter taste, the astringent taste and the irritation was divided by 9 (total number of items) to calculate the similarity (which is referred to as “similarity index”). The smaller the similarity index becomes, the better the taste balances, and the closer the taste is to the taste characteristics (quality) of sucrose. The total taste becomes preferable. The similarity indexes of each derivatives are shown as follows.
To the aqueous solution of derivative 1 having a sweetness level equivalent to that of PSE 10%, salt was added as final concentratins of 0.1%, 0.2% and 0.5% to compare with the aqueous solution of 10% sucrose for by 2 points comparison method (n=8) and evaluate the characteristics of the taste.
The sensory evaluation was performed by the same way as Example 6.
The following experiments were conducted using the water obtained by ion exchanging and further distilling tap water.
An aqueous solution of each of derivatives 1 to 9 having a sweetness level equivalent to that of PES 10% was prepared, and compared with aqueous 10% sucrose solution with respect to 9 items, namely, “the onset of the taste”, “round taste”, “clear taste”, “lingering taste”, “peculiar taste”, “heavy taste”, “bitter taste”, “astringent taste” and “irritation”. The results were determined as 5 levels (−2 point: very weak, −1 point: a little weak, 0 point: same, +1 point: a little strong, +2 point: very strong) by 8 panelists, and the average points were calculated.
Next, the total of the absolute value of the deviation from sucrose in each of the evaluation items consisting of onset of the taste, round taste, clear taste, lingering taste, peculiar taste, heavy taste, bitter taste, astringent taste and irritation was divided by 9 (total number of items) to calculate the similarity (which is refer to as “similarity index”). The smaller the similarity index becomes, the better the taste balances, and the closer the taste is to the taste characteristics (quality) of sucrose. The total taste becomes preferable. The similarity indexes of each of the derivatives are shown as follows.

[2] = Taste characteristics in a cola drink (9 items, similarity index vs cola drink containing 10% sucrose); conditions: non-carbonated cola drink, PSE 10%, vs cola drink with 10% sucrose; smaller = closer to sucrose; 8 panelists
Experimental: The following experiments were performed in the same way as that of Example 2. Instead of aqueous solution, the cola drink of each of derivatives 1 to 9 having a sweetness level equivalent to that of PSE 10% was prepared, and compared with the cola drink containing 10% sucrose. The evaluation method and so on were same as that of Example 2.
When carbon dioxide is blown in the cola drink, the carbonated cola drink is prepared, however, the taste of the cola drink can be compared more easily in that without carbon dioxide. Thus the sensory evaluation of non-carbonated cola drink was performed.
The composition of the cola drink employed was same as that of Example 1.
(§1) The similarity indexes were calculated as those of aqueous solutions. The smaller the similarity index becomes, the better the taste balances, and the closer the taste is to the taste characteristics (quality) of sucrose. The total taste becomes preferable. The similarity indexes of each derivatives are shown as follows. […]
The following experiments were conducted in the same way as that of Example 15. Instead of aqueous solution, the cola drink of each of derivatives 1 to 9 having a sweetness level equivalent to that of PSE 10% was prepared, and compared with the cola drink containing 10% sucrose. All of the evaluation method and so on were same as those of Example 15.
When carbon dioxide is blown in the cola drink, the carbonated cola drink is prepared, however, the taste of the cola drink can be compared more easily in that without carbon dioxide. Thus the non-carbonated cola drink was organoleptically evaluated.
The composition of the cola drink employed was same as that of Example 14.
as §1, with “(quality)of” for “(quality) of”, “each of the” for “each”

[3] = Equivalent concentration of bitter taste, sensory evaluation, arginine solution (Example 28); conditions: 2% arginine solution; addition 4.4 ppm; as concentration of anhydrous caffeine; 10 panelists; no addition 0.131
Experimental: (§2) With respect to the solution produced by adding derivative 1 (the product of the present invention), or adding nothing (no addition; the reference product) in the concentration shown in the following table 4 to the amino acid solution (2% solution of arginine by weight), the sensory evaluation was performed (using 10 panelists), and the equivalent concentration of bitter taste was determined. The results were shown in the table 4, wherein the equivalent concentration of bitter taste was shown in the concentration of aqueous solution of anhydrous caffeine which is a substance of bitter taste.

[4] = Equivalent concentration of bitter taste, sensory evaluation, mixed amino acids (Example 29); conditions: 2% mixed amino acids; addition: Derivative 2 10 ppm, Glycyrrhizin 250 ppm, Sucrose 50000 ppm; no addition 0.105
Experimental: as §2
With respect to the solution produced by adding derivative 2, Glycyrrhizin or sucrose (the product of the present invention), or adding nothing (no addition; the-reference product) to 2% (by weight) solution of the mixed amino acids (leucine:valine:isoleucine=1:0.5:0.5 by weight), the sensory evaluation was performed (using 10 panelists), and the equivalent concentration of bitter taste was determined in the same way as that described in Example 28, and shown in the table 5.

[5] = Equivalent concentration of bitter taste (Example 30), anhydrous caffeine; conditions: derivative 4 2.2 ppm; anhydrous caffeine 2000 ppm; no addition 0.205
Experimental: as §2
(§3) With respect to the solution produced by adding derivative 4 (2.2 ppm) to each of the substances of Quinine sulfate (39 ppm), anhydrous caffeine (2000 ppm), ferrous citrate (50 ppm), calcium lactate (1500 ppm), and thiamine hydrochloride (5000 ppm) (the product of the present invention), or adding nothing thereto (no addition; the reference product) the reference product (no addition), the sensory evaluation was performed (using 10 panelists), and the equivalent concentration of bitter taste was determined in the same way as that described in Example 28, and shown in table 6.

[6] = Equivalent concentration of bitter taste (Example 30), ferrous citrate; conditions: derivative 4 2.2 ppm; ferrous citrate 50 ppm; no addition 0.027
Experimental: as §2, §3

[7] = Equivalent concentration of bitter taste (Example 30), calcium lactate; conditions: derivative 4 2.2 ppm; calcium lactate 1500 ppm; no addition 0.054
Experimental: as §2, §3

| Structure (SMILES) | Similarity index [1] | Similarity index [2] | Equivalent concentration of bitter taste [3] [g/100 g] | Equivalent concentration of bitter taste [4] [g/100 g] | Equivalent concentration of bitter taste (Amount of anhydrous caffeine g/100 g), Caffeine (anhydrous) [5] [g/100 g] | Equivalent concentration of bitter taste (Amount of anhydrous caffeine g/100 g), Ferrous citarte [6] [g/100 g] | Equivalent concentration of bitter taste (Amount of anhydrous caffeine g/100 g), Calcium lactate [7] [g/100 g] |
| --- | --- | --- | --- | --- | --- | --- | --- |
| COC(=O)[C@H](Cc1ccccc1)NC(=O)[C@H](CC(=O)O)NCCC(C)(C)c1ccc(O)cc1 [Derivative 6, N-[N-[3-(4-hydroxyphenyl)-3-methylbutyl]-L-α-aspartyl]-L-phenylalanine 1-methyl ester] | 0.93 | 0.81 |  |  |  |  |  |
| COC(=O)[C@H](Cc1ccccc1)NC(=O)[C@H](CC(=O)O)NCCCc1ccc(OC)c(O)c1 [Derivative 1, N-[N-[3-(3-hydroxy-4-methoxyphenyl)propyl] -L-α-aspartyl]-L-phenylalanine 1-methyl ester] | 1.17 | 0.78 | 0.060 |  |  |  |  |
| COC(=O)[C@H](Cc1ccccc1)NC(=O)[C@H](CC(=O)O)NCCCc1ccc(OC)cc1 [Derivative 2, N-[N-[3-(4-methoxyphenyl)propyl]-L-α-aspartyl]-L-phenylalanine 1-methyl ester] | 0.63 | 0.80 |  | 0.051 |  |  |  |
| COC(=O)[C@H](Cc1ccccc1)NC(=O)[C@H](CC(=O)O)NCCC(C)(C)c1ccc(O)c(C)c1 [Derivative 4, N-[N-[3-(3-methyl-4-hydroxyphenyl)-3-methylbutyl]-L-α-aspartyl]-L-phenylalanine 1-methyl ester] | 0.93 | 1.04 |  |  | 0.045 | 0.020 | 0.025 |
| COC(=O)[C@H](Cc1ccccc1)NC(=O)[C@H](CC(=O)O)NCCCc1ccc(O)c(C)c1 [Derivative 8, N-[N-[3-(3-methyl-4-hydroxyphenyl)propyl]-L-α-aspartyl]-L-phenylalanine 1-methyl ester] | 0.77 | 1.00 |  |  |  |  |  |
